The test system of this experiment is BDF1 mice, B16 melanoma ip, median survival T/C. As to the kind of experiment: NCI In Vivo Anticancer Drug Screen. Data for tumor model B16 Melanoma (intraperitoneal) in B6D2F1 (BDF1) mice. The conditions noted are these: endpoint: median survival time, higher = longer survival. The procedure, abridged:
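Antitumor activity is assessed in mice bearing a transplanted tumor, with survival or tumor size compared against vehicle-dosed controls and expressed as T/C.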

Where [1] appears, read: dose: 12.5 mg/kg/injection, schedule: Q01DX009 (ip), vehicle: saline with Tween-80.
Setting [2] is: dose: 100.0 mg/kg/injection, schedule: Q01DX009 (ip), vehicle: Klucel (hydroxypropylcellulose) (HPC).
Where [3] appears, read: dose: 400.0 mg/kg/injection, schedule: Q01DX009 (ip), vehicle: Klucel (hydroxypropylcellulose) (HPC).
Setting [4] is: dose: 50.0 mg/kg/injection, schedule: Q01DX009 (ip), vehicle: Klucel (hydroxypropylcellulose) (HPC).
Where [5] appears, read: dose: 200.0 mg/kg/injection, schedule: Q01DX009 (ip), vehicle: Klucel (hydroxypropylcellulose) (HPC).
Where [6] appears, read: dose: 100.0 mg/kg/injection, schedule: Q04DX003 (ip), vehicle: Klucel (hydroxypropylcellulose) (HPC).
Setting [7] is: dose: 200.0 mg/kg/injection, schedule: Q04DX003 (ip), vehicle: Klucel (hydroxypropylcellulose) (HPC).
The mark [8] stands for this setting: dose: 400.0 mg/kg/injection, schedule: Q04DX003 (ip), vehicle: Klucel (hydroxypropylcellulose) (HPC).
The mark [9] stands for this setting: dose: 100.0 mg/kg/injection, schedule: Q01DX009 (ip), vehicle: saline with Tween-80.
Setting [10] is: dose: 50.0 mg/kg/injection, schedule: Q01DX009 (ip), vehicle: saline with Tween-80.

This note sets out measurements from PubChem BioAssay AID192 (DTP/NCI, 2004).

Several values for one entry are separate records, joined by “and”; a condition that tells them apart may be missing. Equal entries are not always repeated. Inconclusive results and toxic doses are left out.

As to `CCO`, the T/C by setting is: (dose: 250.0 mg/kg/injection, schedule: Q01DX009 (ip), vehicle: saline) 109 % of control; (dose: 500.0 mg/kg/injection, schedule: Q01DX009 (ip), vehicle: saline) 86 % of control; (dose: 1000.0 mg/kg/injection, schedule: Q01DX009 (ip), vehicle: saline) 104 % of control; (dose: 2000.0 mg/kg/injection, schedule: Q01DX009 (ip), vehicle: saline) 93 % of control.

`COc1cccc2c1C(=O)c1c(O)c3c(c(O)c1C2=O)C[C@@](O)(C(C)=O)C[C@@H]3OC1CC(NC(C)=O)C(O)C(C)O1` (some centres undefined): the T/C reads like this: (dose: 6.25 mg/kg/injection, schedule: Q01DX009 (ip), vehicle: saline) 169 % of control; (dose: 12.5 mg/kg/injection, schedule: Q01DX009 (ip), vehicle: saline) 198 % of control; (dose: 25.0 mg/kg/injection, schedule: Q01DX009 (ip), vehicle: saline) 308 % of control; (dose: 50.0 mg/kg/injection, schedule: Q01DX009 (ip), vehicle: saline) 227 % of control.

`CCCCCCCCCCCCCC(C)NCc1ccccc1` (centres undefined): the T/C is, setting by setting: (dose: 3.13 mg/kg/injection, schedule: Q01DX009 (ip), vehicle: saline with Tween-80) 100 % of control; (dose: 6.25 mg/kg/injection, schedule: Q01DX009 (ip), vehicle: saline with Tween-80) 100 % of control; under setting [1], 100 % of control.

On to `CCCC1CC[N-]CC1.CCCC1CC[N-]CC1.CCCC1CC[N-]CC1.CCCC1CC[N-]CC1.CS(C)=O.CS(C)=O.[Cl-].[Cl-].[Cl-].[Cl-].[Cl][Rh][Cl].[Rh+3]`, for which the T/C by setting is: (dose: 1.56 mg/kg/injection, schedule: Q01DX009 (ip), vehicle: water) 105 % of control; (dose: 3.13 mg/kg/injection, schedule: Q01DX009 (ip), vehicle: water) 107 % of control; (dose: 6.25 mg/kg/injection, schedule: Q01DX009 (ip), vehicle: water) 120 % of control; (dose: 25.0 mg/kg/injection, schedule: Q01DX009 (ip), vehicle: water) 124 % of control.

On to `C=Cc1cc(OC)c2c(c1)c(=O)oc1c2cc(OC)c2c(O)ccc(C3OC(C(C)O)C(O)C3O)c21` (centres undefined), for which the T/C is, setting by setting: under setting [2], 159 % of control; under setting [3], 113 % of control.

For `Nc1ncnc2c1ncn2Cc1ccccc1`, the T/C is 89 % of control and 90 % of control under setting [4]; 90 % of control and 100 % of control under setting [2]; 86 % of control under setting [5].

For `CCOC(=O)C(NC(C)=O)C(=O)OCC`, the T/C under setting [6] is 90 % of control, the T/C under setting [7] is 102 % of control and the T/C under setting [8] was 95 % of control.

As for `[Cl][Ni+2][Cl].[NH-]CCN1CC1`, the T/C was 97 % of control (dose: 0.78 mg/kg/injection, schedule: Q01DX009 (ip), vehicle: saline); 97 % of control (dose: 1.56 mg/kg/injection, schedule: Q01DX009 (ip), vehicle: saline); 90 % of control (dose: 3.12 mg/kg/injection, schedule: Q01DX009 (ip), vehicle: saline).

Turning to `Cc1cc(C)nc(NS(=O)(=O)c2ccc(N=Nc3nc4[nH]c(N)nc(=S)c4[nH]3)cc2)n1`, the T/C was 115 % of control (dose: 0.19 mg/kg/injection, schedule: Q01DX009 (ip), vehicle: Klucel (hydroxypropylcellulose) (HPC)); 111 % of control (dose: 0.39 mg/kg/injection, schedule: Q01DX009 (ip), vehicle: Klucel (hydroxypropylcellulose) (HPC)); 105 % of control (dose: 0.78 mg/kg/injection, schedule: Q01DX009 (ip), vehicle: Klucel (hydroxypropylcellulose) (HPC)); 102 % of control (dose: 1.56 mg/kg/injection, schedule: Q01DX009 (ip), vehicle: Klucel (hydroxypropylcellulose) (HPC)).

On to `O=C(Nc1ccccc1)Oc1ccc(Cl)cc1`, for which the T/C is, setting by setting: under setting [2], 93 % of control; under setting [5], 94 % of control; under setting [3], 99 % of control.

With `Cc1ccc(C(=O)C=C(C(F)(F)F)C(F)(F)F)cc1`, the T/C was 111 % of control (dose: 6.25 mg/kg/injection, schedule: Q04DX003 (ip), vehicle: saline with Tween-80); 100 % of control (dose: 12.5 mg/kg/injection, schedule: Q04DX003 (ip), vehicle: saline with Tween-80); 105 % of control (dose: 25.0 mg/kg/injection, schedule: Q04DX003 (ip), vehicle: saline with Tween-80).

Turning to `O=C1C(N2CCN(CCO)CC2)=C(N2CC2)C(=O)C(N2CCN(CCO)CC2)=C1N1CC1`, the T/C (dose: 0.25 mg/kg/injection, schedule: Q01DX009 (ip), vehicle: saline) is 122 % of control; the T/C (dose: 0.5 mg/kg/injection, schedule: Q01DX009 (ip), vehicle: saline) is 122 % of control; the T/C (dose: 1.0 mg/kg/injection, schedule: Q01DX009 (ip), vehicle: saline) is 109 % of control.

For the compound `CC(=O)Nc1cccc2c1CCCC2`, the T/C reads like this: (dose: 100.0 mg/kg/injection, schedule: Q04DX003 (ip), vehicle: gum acacia) 113 % of control; (dose: 200.0 mg/kg/injection, schedule: Q04DX003 (ip), vehicle: gum acacia) 97 % of control; (dose: 400.0 mg/kg/injection, schedule: Q04DX003 (ip), vehicle: gum acacia) 95 % of control.

As for `O=c1cc(-c2ccccc2)[nH]c(=S)[nH]1`, the T/C by setting is: under setting [9], 114 % of control; (dose: 200.0 mg/kg/injection, schedule: Q01DX009 (ip), vehicle: saline with Tween-80) 108 % of control.

As for `C/C=C/CNc1ccccc1`, the T/C by setting is: under setting [10], 101 % of control; under setting [9], 94 % of control.

In the case of `CCc1cc(O)cc(C)c1Cl`, the T/C under setting [1] was 95 % of control; the T/C (dose: 25.0 mg/kg/injection, schedule: Q01DX009 (ip), vehicle: saline with Tween-80) was 110 % of control; the T/C under setting [10] is 99 % of control and 106 % of control.

Consider `C[C@H](CN1CC(=O)NC(=O)C1)N1CC(=O)NC(=O)C1`, for which the T/C is, setting by setting: (dose: 8.0 mg/kg/injection, schedule: Q01DX009 (ip), vehicle: saline) 108 % of control; (dose: 16.0 mg/kg/injection, schedule: Q01DX009 (ip), vehicle: saline) 120 % of control; (dose: 16.0 mg/kg/injection, schedule: Q01DX009 (ip), vehicle: water) 107 % of control; (dose: 25.0 mg/kg/injection, schedule: Q04DX003 (ip), vehicle: water) 111 % of control; (dose: 32.0 mg/kg/injection, schedule: Q01DX009 (ip), vehicle: water) 111 % of control; (dose: 50.0 mg/kg/injection, schedule: Q04DX003 (ip), vehicle: water) 94 % of control. Further, the T/C was 106 % of control (dose: 100.0 mg/kg/injection, schedule: Q04DX003 (ip), vehicle: water); 101 % of control (dose: 128.0 mg/kg/injection, schedule: Q01DX009 (ip), vehicle: water); 107 % of control (dose: 200.0 mg/kg/injection, schedule: Q04DX003 (ip), vehicle: water).

Turning to `COc1ccccc1NC(N)=S`, the T/C reads like this: (dose: 25.0 mg/kg/injection, schedule: Q01DX009 (ip), vehicle: Klucel (hydroxypropylcellulose) (HPC)) 110 % of control; under setting [4], 103 % of control; under setting [2], 100 % of control.

Regarding `CCCCCCCCCC(=O)CCCCCC`, the T/C is, setting by setting: under setting [2], 90 % of control; under setting [5], 89 % of control.

For the compound `O=C(O)/C=C/C(=O)Nc1ccccc1`, the T/C was 106 % of control under setting [6], 96 % of control under setting [7] and 103 % of control under setting [8].

With `CC(=O)CC(=O)NCCN1CCN=C1C`, the T/C by setting is: (dose: 100.0 mg/kg/injection, schedule: Q01DX009 (ip), vehicle: saline) 109 % of control; (dose: 200.0 mg/kg/injection, schedule: Q01DX009 (ip), vehicle: saline) 116 % of control; (dose: 400.0 mg/kg/injection, schedule: Q01DX009 (ip), vehicle: saline) 110 % of control.
